Measured values reported in ChEMBL document CHEMBL3407385, “Promiscuous 2-aminothiazoles (PrATs): a frequent hitting scaffold” (J Med Chem, 2015).
Activity calls are given as the source filed them. The calls are words filed in the database; no cut-off is given here.

How the values were obtained:
[1] = Binding affinity to oxidoreductase 1 (unknown origin) at 1 mM by HSQC-NMR analysis
[2] = Binding affinity to oxidoreductase 1 (unknown origin) at 1.5 mM by HSQC-NMR analysis
[3] = Binding affinity to oxidoreductase 1 (unknown origin) by STD-NMR analysis
[4] = molecular target: T1, SPRY domain-containing SOCS box protein 2 (Homo sapiens) (UniProt Q99619); assay: Binding affinity to SPSB2 (unknown origin) at 3mM by 19F NMR method
T1 sequence (whole entry): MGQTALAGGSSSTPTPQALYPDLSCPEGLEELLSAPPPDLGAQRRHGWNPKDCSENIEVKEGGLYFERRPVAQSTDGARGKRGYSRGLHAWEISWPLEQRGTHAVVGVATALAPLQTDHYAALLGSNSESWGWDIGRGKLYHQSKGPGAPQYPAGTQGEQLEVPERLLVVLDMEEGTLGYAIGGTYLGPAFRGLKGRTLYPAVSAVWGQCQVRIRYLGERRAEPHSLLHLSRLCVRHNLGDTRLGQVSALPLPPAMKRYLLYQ

**Q.** Which Activity [1] does the source give for `COc1ccc(-c2nc(N)sc2C)cc1` here?
**A.** Active

**Q.** For `Nc1nc2cc3c(cc2s1)OCCO3`, which Activity [2] is on record?
**A.** Active

**Q.** Which Activity [1] does the source give for `Cc1sc(N)nc1-c1ccccc1` here?
**A.** Active

**Q.** For `Nc1nc(-c2ccccc2)cs1`, which Activity [3] is on record?
**A.** Active

**Q.** And the Activity [1]?
**A.** Active

**Q.** And the Activity [4]?
**A.** Active
